From patent publication US8415393B2, “Anti-bacterial drug targeting of genome maintenance interfaces” (Wisconsin Alumni Research Foundation, priority 2007, dated 2013)
Where a SMILES comes first, the peptide text is derived from it. Where no end group is shown, it is not given here.

How the values were obtained:
[1] = target: T1, ExoI (Escherichia coli, UniProt P04995); type: binding; settings: FIG. 26A
T1 construct: made in house

[2] = target: Topoisomerase III (TopoIII)/C-terminal tail of E. coli SSB (Escherichia coli, UniProt P14294); assay: Topoisomerase III peptide binding (fluorescence anisotropy); settings: 100 μM final concentration, 1% DMSO
Topoisomerase III (TopoIII)/C-terminal tail of E. coli SSB, sequence (P14294 whole entry): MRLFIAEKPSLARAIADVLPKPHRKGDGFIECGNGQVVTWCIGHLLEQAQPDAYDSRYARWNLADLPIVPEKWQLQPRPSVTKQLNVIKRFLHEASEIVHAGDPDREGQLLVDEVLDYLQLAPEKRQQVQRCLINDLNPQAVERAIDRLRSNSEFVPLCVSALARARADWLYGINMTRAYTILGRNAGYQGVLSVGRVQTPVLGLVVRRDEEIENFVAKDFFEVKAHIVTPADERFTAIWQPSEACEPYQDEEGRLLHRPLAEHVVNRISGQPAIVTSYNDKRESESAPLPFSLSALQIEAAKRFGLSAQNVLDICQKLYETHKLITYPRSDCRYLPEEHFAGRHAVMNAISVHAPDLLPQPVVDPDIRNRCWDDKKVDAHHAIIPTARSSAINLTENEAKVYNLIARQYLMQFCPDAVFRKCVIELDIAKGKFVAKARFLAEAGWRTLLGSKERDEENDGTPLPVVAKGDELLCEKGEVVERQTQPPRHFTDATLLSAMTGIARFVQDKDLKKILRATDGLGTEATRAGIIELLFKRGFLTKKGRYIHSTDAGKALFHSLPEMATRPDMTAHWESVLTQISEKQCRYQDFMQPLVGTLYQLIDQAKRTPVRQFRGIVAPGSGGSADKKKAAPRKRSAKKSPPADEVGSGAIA
Protocol: TopoIII was titrated into 10 nM fluorescent peptide, as described above for the ExoI binding assays. The buffer conditions for this binding assay were: 300 mM NaCl, 20 mM Tris pH 8.0, 10% Glycerol, 1 mM BME (Beta-Mercaptoethanol), and 1% DMSO. Concentrations of TopoIII used are given on the graph in FIG. 24. Changes in anisotropy upon binding were read using PanVera Beacon 2000 FP.
Either unlabeled peptide or various compounds were then added to a final concentration of 100 μM. These compounds and unlabeled peptide were dissolved in DMSO and their addition brought the final concentration of DMSO to 1%.

[3] = tested on: ExoI nuclease activity; settings: radiolabeled ssDNA substrate
[4] = target: PriA (Escherichia coli, UniProt P17888); settings: read-out: Kd, app; SSB-Ct peptide binding by PriA; cited from earlier work
PriA, sequence (P17888 whole entry): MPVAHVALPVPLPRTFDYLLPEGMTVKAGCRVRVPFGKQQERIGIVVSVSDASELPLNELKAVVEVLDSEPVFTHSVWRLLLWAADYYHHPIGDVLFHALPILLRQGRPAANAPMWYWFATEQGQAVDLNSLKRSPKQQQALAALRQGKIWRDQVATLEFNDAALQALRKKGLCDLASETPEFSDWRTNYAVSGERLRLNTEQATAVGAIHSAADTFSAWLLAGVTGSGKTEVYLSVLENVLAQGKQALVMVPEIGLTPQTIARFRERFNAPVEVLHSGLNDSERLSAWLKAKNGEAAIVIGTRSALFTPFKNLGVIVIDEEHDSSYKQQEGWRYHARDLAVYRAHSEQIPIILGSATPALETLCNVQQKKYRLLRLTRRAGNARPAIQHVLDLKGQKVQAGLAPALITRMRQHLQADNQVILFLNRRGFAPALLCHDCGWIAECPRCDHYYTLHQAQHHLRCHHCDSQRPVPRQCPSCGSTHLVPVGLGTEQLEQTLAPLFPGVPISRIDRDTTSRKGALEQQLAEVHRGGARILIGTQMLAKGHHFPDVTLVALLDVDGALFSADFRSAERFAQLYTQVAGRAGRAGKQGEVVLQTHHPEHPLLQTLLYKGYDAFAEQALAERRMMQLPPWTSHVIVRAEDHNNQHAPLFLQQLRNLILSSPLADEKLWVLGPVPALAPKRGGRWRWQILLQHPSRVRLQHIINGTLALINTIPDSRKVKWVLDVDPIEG

[5] = target: RecQ (Escherichia coli, UniProt P15043); settings: read-out: Kd, app; SSB-Ct peptide binding by RecQ; cited from earlier work
RecQ, sequence (P15043 whole entry): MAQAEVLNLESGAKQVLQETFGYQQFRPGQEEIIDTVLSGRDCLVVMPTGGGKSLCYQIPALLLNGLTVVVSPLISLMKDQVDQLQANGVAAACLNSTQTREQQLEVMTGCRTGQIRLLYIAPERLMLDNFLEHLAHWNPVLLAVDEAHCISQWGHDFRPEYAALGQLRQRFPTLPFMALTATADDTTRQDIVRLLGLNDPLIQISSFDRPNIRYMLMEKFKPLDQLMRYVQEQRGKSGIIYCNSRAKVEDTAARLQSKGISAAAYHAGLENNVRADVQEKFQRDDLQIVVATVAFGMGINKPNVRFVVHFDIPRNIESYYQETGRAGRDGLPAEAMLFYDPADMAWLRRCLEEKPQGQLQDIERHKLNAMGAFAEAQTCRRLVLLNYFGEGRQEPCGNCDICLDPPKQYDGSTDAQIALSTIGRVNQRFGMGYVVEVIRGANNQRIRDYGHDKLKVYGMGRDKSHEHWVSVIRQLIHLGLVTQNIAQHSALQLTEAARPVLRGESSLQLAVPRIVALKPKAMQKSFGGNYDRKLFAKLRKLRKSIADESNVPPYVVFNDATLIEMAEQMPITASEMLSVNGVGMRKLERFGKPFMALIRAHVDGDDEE

[6] = target: T2, Exonuclease I/SSB-Ct complex (Escherichia coli, UniProt P04995); assay: Fluorescence polarization competition: inhibition of fluorescein-SSB C-terminal peptide binding to Exonuclease I (HTS and Ki determination); settings: FIG. 7, unlabeled peptide competition
T2 sequence (P04995 whole entry, looked up): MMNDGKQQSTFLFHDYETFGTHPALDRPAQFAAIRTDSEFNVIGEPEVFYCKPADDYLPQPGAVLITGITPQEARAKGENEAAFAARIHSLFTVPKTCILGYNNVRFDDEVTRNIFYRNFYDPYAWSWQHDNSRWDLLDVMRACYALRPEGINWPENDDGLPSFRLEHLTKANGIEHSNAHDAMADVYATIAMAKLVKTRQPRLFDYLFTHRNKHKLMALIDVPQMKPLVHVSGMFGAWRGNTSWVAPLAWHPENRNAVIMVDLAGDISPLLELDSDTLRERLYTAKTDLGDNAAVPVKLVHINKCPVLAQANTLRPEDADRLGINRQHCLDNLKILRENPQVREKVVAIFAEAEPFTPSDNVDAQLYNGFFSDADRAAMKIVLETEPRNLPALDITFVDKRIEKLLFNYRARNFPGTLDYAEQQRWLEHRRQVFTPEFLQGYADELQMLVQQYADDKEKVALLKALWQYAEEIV
Protocol: Peptide binding assays were performed in solution, using the peptides from above, and Exonuclease I, in the absence or presence of various compounds. Different amounts of Exonuclease I (ExoI) were used in the peptide binding assays. […] Fluorescence polarization (FP) was measured at 25° C. in triplicate; the average FP value was plotted with standard deviation of the mean shown as error.
Concentrated Exonuclease I was dialyzed overnight into 2 liters dilution buffer (DB) (20 mM Tris pH 8.0 HCl, 100 mM NaCl, 1 mM MgCl2, and 1 mM Beta-Mercaptoethanol). […] After sitting at room temperature for 5 min, a liquid handling system was used to aliquot this solution into 384 well plates providing 30 microliters/well. One microliter of 1 mM compound was then added. The screened compounds were obtained from the ChemBridge DIVERSet library (ChemBridge Corporation, San Diego, Calif.), from the Maybridge HitFinder library (Thermo Fisher Scientific, Waltham, Mass.), from the ChemDiv library (Chemical Diversity Labs, San Diego, Calif.), or from the Known Bioactive Library—KBA01.
The FP (fluorescence polarization) values for each well were read using a (plate reader) 5 minutes after compound addition.
Increasing amounts of compound were titrated into peptide protein mixture until FP values were lowered to values given by only fluorescently labeled peptide alone. Ki values were determined using the Ki calculator for fluorescence-based competitive binding assays of Prof. Shaomeng Wang, University of Michigan (Nikolovska-Coleska et al., 2004, Anal. Biochem. 332: 261-273).

[7] = target: T3, E. coli Exonuclease I (Escherichia coli, UniProt P04995 1-475); assay: fluorescence polarization competition: unlabeled peptide titrated into 1 uM ExoI with 10 nM fluorescein-labeled SSB C-terminal peptide
T3 construct: also called ExoI; Exol
T3 sequence: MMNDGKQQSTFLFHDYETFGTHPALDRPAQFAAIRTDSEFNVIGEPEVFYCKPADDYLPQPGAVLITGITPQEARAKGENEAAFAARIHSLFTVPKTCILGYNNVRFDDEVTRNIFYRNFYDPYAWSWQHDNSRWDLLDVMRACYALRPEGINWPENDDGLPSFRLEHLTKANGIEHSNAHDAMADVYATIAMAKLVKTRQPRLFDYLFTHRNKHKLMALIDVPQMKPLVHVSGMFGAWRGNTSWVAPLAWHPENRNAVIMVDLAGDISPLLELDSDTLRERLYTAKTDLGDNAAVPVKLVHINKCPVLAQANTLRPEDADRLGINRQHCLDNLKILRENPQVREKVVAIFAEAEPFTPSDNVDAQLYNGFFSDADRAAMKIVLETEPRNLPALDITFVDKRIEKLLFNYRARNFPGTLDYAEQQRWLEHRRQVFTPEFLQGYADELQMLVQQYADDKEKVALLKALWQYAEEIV

## WDFMDDPFID [F-mixed]
[1]
  ExoI binding to control peptides relative to F-SSB-Ct: minimal

## CC[C@H](C)[C@H](NC(=O)[C@H](CC(=O)O)NC(=O)[C@H](CC(=O)O)NC(=O)[C@H](CC(=O)O)NC(=O)[C@H](Cc1ccccc1)NC(=O)[C@H](CC(=O)O)NC(=O)[C@H](CCSC)NC(=O)[C@@H](N)Cc1c[nH]c2ccccc12)C(=O)N1CCC[C@H]1C(=O)N[C@@H](Cc1ccccc1)C(=O)O [WT peptide] (H-WMDFDDDIPF-OH; N-terminus assumed)
[2]
  inhibition of fluorescent peptide binding to TopoIII (anisotropy): did not bring the anisotropy values down to the baseline
[3]
  SSB stimulation of ExoI nuclease activity: no apparent effect
[4]
  Kd: 2000 nM
[5]
  Kd: 6000 nM

## DDDIPF: unlabeled SSB C-terminal peptide with three residues (MDF) missing from the N-terminus [reference compound]
[6]
  amount needed to titrate away the fluorescent peptide, relative to full-length peptide: ten-fold more

B1: WT peptide (WMDFDDDIPF, without a fluorescent moiety) (peptide)
peptide: WMDFDDDIPF
notes: also called unlabeled peptide; SSB-Ct peptide
[7]
  Ki: 53 nM
